# Assay results: US6978724B2, “Copper complexes and their use as wood preservatives” (E.I. Du Pont de Nemours and Company, priority 2002, dated 2005)
# Columns and labels:
# [1] = system: white, hairy fungus; assay: Soil burial of pressure-imbibed SYP wooden stakes in flower pots, visual examination; conditions: SYP stakes imbibed at 5000 ppm copper, 155 psi; about 3/4 buried in moist non-sterile soil, greenhouse at 78° C, after 5 months
# Description: Two pre-weighed SYP wooden stakes (¾″×¾″×12″ or ¾″×1½″×12″) were loaded into a hastaloy pressure vessel and covered with imbibement solution at room temperature. The imbibement solution was prepared by diluting the preparations given in Example 1 with water to a copper concentration of 5000 ppm. The vessel was evacuated for 5 min and then pressured with nitrogen for 1 h at 155 psi at which time the pressure was removed. The stakes were then removed from the vessel and allowed to drip dry. Weights were then recorded to insure that the wood was penetrated with the imbibement solution. The stakes were then dried overnight in a convection oven at 55° C. Weights of the dried stakes were then recorded.
# These treated stakes along with control (untreated) stakes were labeled and buried in a flower pot with about ¾ of the wood below the surface of non-sterile soil. The flower pots were kept moist in a greenhouse at […]. After 5 months, the stakes were visually examined.
# [2] = system: non-sterile soil; assay: Ground burial exposure of treated newsprint and cardboard; conditions: newsprint soaked 5 min in 5000 ppm copper solution; buried in moist non-sterile garden soil 90 days, 18 to 24° C
# From the text: Cellulosic materials, including newsprint and cardboard samples, treated with copper amidoxime or hydroxamic acid complexes are preserved after being buried in non-sterile soil for 90 days. (Procedure adapted from: Hussey, S. W., More Brownie Girl Scout Try-Its, Girl Scouts of the U.S.A., 81 (1989).) In the same soil, untreated newsprint and cardboard samples were consumed microbially resulting in disintegration of the materials. Given that the composition of mechanically pulped newsprint closely resembles that of coniferous trees (Table 1, U.S. Pat. No. 5,582,682), this method serves as a rapid test for screening for preservatives of wood.
# The imbibement solution was prepared by diluting the preparations given in Example 1 with water to a copper concentration of 5000 ppm. Samples of newsprint were soaked in solutions of the copper complexes for 5 min. The paper was removed from the imbibing solution, blotted nearly dry, air-dried overnight, and then placed in sacks made from nylon stockings. The sacks were labeled and closed with nylon twist-ties. Control samples of untreated newsprint were placed in similar nylon sacks. The sacks of treated and untreated newsprint were buried in clay pots containing moist, non-sterile garden soil for 90 days and maintained at approximately 18 to 24° C. After 90 days the sacks were unburied, opened, and the contents examined for decomposition. […]
substance,measurement,setting,value
Copper Complex of the Amidoxime of Sorbitol [Example 1],"visual examination of stakes for covering of white, hairy fungus below the soil surface",[1],showed no such covering
same,decomposition of treated newsprint,[2],still intact and the printing was still legible
